Measured values from the CATMoS acute toxicity set (Mansouri et al. 2021).
“And” between values parts separate entries of the source, which are not always exact repeats. Equal values may be shown once.

Assay: rat acute oral toxicity
Conditions: in vivo
Text: […]The data set underlying the modeling effort for this project was initially compiled by NICEATM and U.S. EPA’s CCTE. Briefly, LD50 data were collected from rat acute oral systemic toxicity tests, including limit tests, ranges/confidence intervals, and discrete LD50 values. The full data set included 21,200 LD50 entries for 15,688 substances. […] Data were reviewed to ensure that LD50 values with obvious errors in the extracted data such as unit conversion errors (e.g., comma and decimal separator misplacements) were either fixed or removed. After this review, 16,209 LD50 values remained. Many of the chemicals represented had multiple LD50 entries, requiring that a single representative value per Chemical Abstracts Service Registry Number (CASRN) identifier be defined to facilitate modeling efforts. Based on ATWG feedback and to define the representative LD50 as a protective value while accounting for the distribution across multiple LD50s, the median of the lowest quartile was computed using only discrete LD50 values (omitting limit test data and range and confidence interval data). A detailed summary of the data compilation is available online on the NICEATM webpage dedicated to the collaborative modeling project (NTP 2020).
[…][…] For categorical designations, limit test and range/confidence interval LD50 data were integrated wherever possible. As such, the number of chemicals with end point values/calls varies across the modeling end points (Table 3) based on whether chemicals had representative LD50 values and/or other data. If a chemical had both, the representative value was used to determine categorical calls rather than limit test data. Some data were useable only for certain end points and categories depending on the thresholds. For example, ranges that spanned multiple hazard categories were considered only for the binary (very toxic/nontoxic) end points and omitted from rendering a determination for hazard category assignment.
[…]The final data set comprising 11,992 chemicals was split into training and evaluation sets […], respectively. This process was performed semirandomly by ordering chemicals based on the five end points (categorical and continuous LD50 values) and partitioning every fourth record into the evaluation set accordingly. This approach was taken to ensure an equivalent distribution of the LD50 values and the different hazard categories between the training and the evaluation sets without supervised sampling of the chemicals based on structures (Figure 1A). The sources of the chemical structures were also kept equivalent between the two sets, with chemical structures obtained from DSSTox, being the highest quality, representing over 75% of each set (Figure 1B).

With `O=c1oc2ccccc2c(O)c1C1CC(c2ccc(-c3ccc(Br)cc3)cc2)Cc2ccccc21` (configuration not stated) the LD50 was 0.16 mg/kg.
`C=COC(C)=O` gave an LD50 of 2900 mg/kg.
Work on `CC1(C)[C@H](/C=C(\Cl)C(F)(F)F)[C@@H]1C(=O)O[C@H](C#N)c1cccc(Oc2ccccc2)c1` yielded an LD50 of 114 mg/kg.
Molecule `CCS(=O)CCSP(=O)(OC)OC` (configuration not stated) has an LD50 of 48 mg/kg.
With `CCC[N+](CCC)(CCC)CCC` the LD50 was 3300 mg/kg.
`CCCCC(=O)O` showed an LD50 of 1060 mg/kg.
Molecule `CC(O)COCC(C)O` (configuration not stated) has an LD50 of 14800 mg/kg.
In the case of `Cc1cccc(N)c1C`, the LD50 is reported as 930 mg/kg.
`NC(N)=S` gave an LD50 of 20 mg/kg.
With `CCOP(=S)(OCC)Oc1ccc([N+](=O)[O-])cc1` the LD50 was 2.1 mg/kg.
In the case of `CCc1ccccc1`, the LD50 is reported as 3500 mg/kg.
For `C=C(C)C(=O)OCCO`, the LD50 was 5050 mg/kg.
With `NC(=O)c1c(F)cccc1F` the LD50 was 1080 mg/kg.
`Nc1ccc(O)c([N+](=O)[O-])c1` showed an LD50 of 1470 mg/kg.
`S=c1[nH]c(=S)[nH]c(=S)[nH]1` gave an LD50 of 1180 mg/kg.
In the case of `CCCCOP(=O)(OCCCC)Oc1ccccc1`, the LD50 is reported as 2140 mg/kg.
With `O=C(O)COc1ccc(Cl)cc1Cl` the LD50 was 625 mg/kg and 552 mg/kg and 370 mg/kg.
Work on `CNP(=O)(OC)Oc1ccc(C(C)(C)C)cc1Cl` (configuration not stated) yielded an LD50 of 460 mg/kg.
With `O=C1OC(=O)c2cccc3cccc1c23` the LD50 was 9600 mg/kg.
Work on `Cc1cc(C)cc(N)c1` yielded an LD50 of 707 mg/kg.
Molecule `CCNS(=O)(=O)C(F)(F)C(F)(F)C(F)(F)C(F)(F)C(F)(F)C(F)(F)C(F)(F)C(F)(F)F` has an LD50 of 507 mg/kg.
In the case of `CC(C)CC=O`, the LD50 is reported as 5600 mg/kg.
With `O=C(O)/C=C/C(=O)O` the LD50 was 9300 mg/kg.
With `CC(=O)c1cc2c(cc1C)C(C)(C)C(C)CC2(C)C` (configuration not stated) the LD50 was 920 mg/kg.
`CCC(CC)CN` showed an LD50 of 310 mg/kg.
In the case of `C=Cc1ccccc1`, the LD50 is reported as 1000 mg/kg.
Work on `CCCSP(=S)(OCC)Oc1ccc(SC)cc1` (configuration not stated) yielded an LD50 of 65 mg/kg.
For `Nc1ccc(Sc2ccc(N)cc2)cc1`, the LD50 was 900 mg/kg.
In the case of `CC(=O)CC(c1ccccc1)c1c(O)c2ccccc2oc1=O` (configuration not stated), the LD50 is reported as 1.6 mg/kg.
Work on `OC(O)C(Cl)(Cl)Cl` yielded an LD50 of 479 mg/kg.
Work on `C/C=C(/C)C(=O)O[C@H]1CCN2CC=C(COC(=O)[C@](O)([C@H](C)OC)C(C)(C)O)[C@H]12` yielded an LD50 of 110 mg/kg.
With `COC(=O)CCS` the LD50 was 182 mg/kg.
Work on `COP(=S)(OC)Oc1nc(Cl)c(Cl)cc1Cl` yielded an LD50 of 1500 mg/kg.
In the case of `N#CSCSc1nc2ccccc2s1`, the LD50 is reported as 679 mg/kg.
Work on `CCOC(=O)CCN(SN(C)C(=O)Oc1cccc2c1OC(C)(C)C2)C(C)C` yielded an LD50 of 105 mg/kg.
`Cc1c(Cl)cccc1[N+](=O)[O-]` gave an LD50 of 2320 mg/kg.
Molecule `CCC[N+](C)(C)CC[N+](C)(C)CCO` has an LD50 of 1850 mg/kg.
Molecule `Cn1sccc1=O` has an LD50 of 105 mg/kg.
`NC1CCC(CC2CCC(N)CC2)CC1` (configuration not stated) showed an LD50 of 350 mg/kg.
`ClC(Cl)C(Cl)Cl` showed an LD50 of 200 mg/kg.
`N#Cc1ccc(Cl)c(Cl)c1` showed an LD50 of 200 mg/kg.
With `O=c1[nH]c(=O)n(Cl)c(=O)n1Cl` the LD50 was 1170 mg/kg and 1420 mg/kg.
`Cc1ccc(Cl)cc1` gave an LD50 of 2100 mg/kg.
With `O=[N+]([O-])c1cccc(O)c1` the LD50 was 328 mg/kg.
`OCCN1CN(CCO)CN(CCO)C1` showed an LD50 of 763 mg/kg.
Molecule `CC(C)C(=O)c1ccccc1` has an LD50 of 1950 mg/kg.
In the case of `CCC(C)(CCC(C)C)C(=O)OOC(C)(C)C` (configuration not stated), the LD50 is reported as 8080 mg/kg.
Molecule `Ic1ccccc1` has an LD50 of 1750 mg/kg.
Molecule `CSc1nc(NC(C)C)nc(NC(C)C)n1` has an LD50 of 1940 mg/kg.
`Cc1ccccc1OCC1CO1` (configuration not stated) showed an LD50 of 2800 mg/kg.
With `CNC(=O)Oc1cc(C)cc(C)c1` the LD50 was 245 mg/kg.
For `COC(=O)CC(C)=O`, the LD50 was 2580 mg/kg.
Work on `CCCCOCC(C)O` (configuration not stated) yielded an LD50 of 2500 mg/kg.
For `ClC1=C(Cl)C2(Cl)C3C(Cl)C(Cl)CC3C1(Cl)C2(Cl)Cl` (configuration not stated), the LD50 was 200 mg/kg.
For `CCCCCCCCOC(=O)c1cc(O)c(O)c(O)c1`, the LD50 was 1960 mg/kg.
For `CC(C)(C)CC(C)(C)N`, the LD50 was 218 mg/kg.
With `CNC(=O)Oc1ccccc1OC(C)C` the LD50 was 41 mg/kg.
Molecule `CCC1(c2ccccc2)C(=O)NC(=O)NC1=O` has an LD50 of 162 mg/kg.
For `CC1(C)C(=O)N(Br)C(=O)N1Br`, the LD50 was 250 mg/kg.
`CCOCCO` showed an LD50 of 1520 mg/kg.
Work on `Sc1ccccc1` yielded an LD50 of 46 mg/kg.
Molecule `CC1=CCC(O)(C(C)C)CC1` (configuration not stated) has an LD50 of 1300 mg/kg.
`O=c1oc2ccccc2c(O)c1C1CC(c2ccc(-c3ccccc3)cc2)Cc2ccccc21` (configuration not stated) gave an LD50 of 0.925 mg/kg.
Molecule `ClC(Cl)(Cl)c1ccccc1` has an LD50 of 1590 mg/kg.
With `Cc1cc(Cl)ccc1OCCCC(=O)O` the LD50 was 680 mg/kg.
`CC(C)c1ccc(-c2ccccc2)cc1` showed an LD50 of 4570 mg/kg.
`CC(C)CCCCCCCCCCOP(OCCCCCCCCCCC(C)C)OCCCCCCCCCCC(C)C` gave an LD50 of 12000 mg/kg.
In the case of `C/C=C\CC1=C(C)[C@@H](OC(=O)[C@@H]2[C@@H](/C=C(\C)C(=O)OC)C2(C)C)CC1=O`, the LD50 is reported as 1030 mg/kg.
For `O=C1CCCC(=O)O1`, the LD50 was 540 mg/kg.
Work on `CCC[Si](OC)(OC)OC` yielded an LD50 of 5170 mg/kg.
`CN(C)S(=O)(=O)Cl` showed an LD50 of 1220 mg/kg.
In the case of `O=C(Cl)c1ccccc1`, the LD50 is reported as 2460 mg/kg.
